Measured values published in patent US11649208B2, “Compounds and methods for treating alcohol disorder” (SOPHROSYNE PHARMACEUTICALS LIMITED, priority 2021, dated 2023).
Converted amounts (≈) assume the structure as drawn. Like-named read-outs stand apart in the source and are kept apart here. Each block holds one molecule with its values, some of them ahead of it.

Key:
liver ALDH2 [1] = molecular target: T1, liver ALDH2 (Rattus norvegicus, UniProt P11884); assay: In vivo ALDH2 enzymatic activity assay, ethanol challenge (Example 2); set-up: species or system rats (Sprague Dawley)
T1 construct: from tissue; host or cells: liver (left lateral lobe) lysate of Sprague Dawley (CD-IGS) rats
T1 sequence (P11884 20-519): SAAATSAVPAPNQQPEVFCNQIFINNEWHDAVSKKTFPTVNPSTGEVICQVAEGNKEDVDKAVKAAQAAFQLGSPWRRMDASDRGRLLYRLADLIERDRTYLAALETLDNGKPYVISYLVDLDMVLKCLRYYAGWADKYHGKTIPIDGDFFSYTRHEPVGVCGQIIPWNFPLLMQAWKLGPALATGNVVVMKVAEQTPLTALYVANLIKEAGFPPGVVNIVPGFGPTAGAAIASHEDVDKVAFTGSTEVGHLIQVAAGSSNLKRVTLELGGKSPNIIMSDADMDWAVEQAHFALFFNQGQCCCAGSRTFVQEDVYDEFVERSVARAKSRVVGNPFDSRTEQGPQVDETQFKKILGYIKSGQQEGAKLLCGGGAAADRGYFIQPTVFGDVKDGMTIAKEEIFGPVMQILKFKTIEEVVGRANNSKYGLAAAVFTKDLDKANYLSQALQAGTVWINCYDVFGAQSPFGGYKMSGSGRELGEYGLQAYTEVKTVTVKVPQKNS
Method: (§1) Sixty (60) male and sixty (60) female Sprague Dawley (CD-IGS) were obtained from Charles River Laboratories. All animals were housed under controlled conditions of temperature (72±8° F.), relative humidity (30-70%) and a 12-hour light-dark cycle (light from 6:00 AM to 6:00 PM). All animals were allowed free access to standard rodent chow (PicoLab Rodent Diet 20) and water (reverse osmosis, 0.2 μM filtered). Animals had at least a 3-day acclimation period prior to study.
Example 1-2 was synthesized by PharmAgra Labs, Lot #489PAL97; and stored at 4° C. and protected from light upon receipt. Example 1-2 dosing solutions were prepared by dissolving in PBS (pH 7.0) and thoroughly mixing via vortexing and sonication.
Example 1-15 was synthesized by PharmAgra Labs, Lot #505PAL17; and stored at 4° C. and protected from light upon receipt. Example 1-15 dosing solution was prepared by dissolving in PBS (pH 7.0) and thoroughly mixing via vortexing and sonication. The dosing formulation at concentration of 20 mg/mL was a clear solution.
Body weights of the animals in Groups 1-4 were obtained on Day 1. Body weights of the animals in Groups 5-8 were obtained on Days 1-3 respectively. Body weights of the animals in Groups 9-13 were obtained on Days 1, 4 and 5 respectively.
(§2) Animals were respectively administered vehicle and Example 1-2 at dosages of 2, 6.5 or 12 mg/kg via tail vein injection, once daily for 1 day (Groups 1-4), once daily for 3 days (Groups 5-8), or once daily for 5 days (Groups 9-12). For Group 13, animals were administered 20 mg/kg (on Day 1) or 12 mg/kg (on Days 2-5) dose via tail vein injection, once daily for 5 days. In some studies, the animals were administered a compound described herein for 10 days. In some studies, the animals were administered a compound described herein for 12 days. In some studies, the study was carried out with administered the compounds described herein including Example 1-2 racemate, Example 1-2A, Example 1-21B, Example 1-11 racemate, Example 1-11A, and/or Example 1-11B at a dosage of about 0.5, 1, 2, 4, and 8 mg.
Dosing volume (1 or 0.6 mL/kg) was calculated based on the body weight of the individual animal obtained on Day 1 (all groups), Days 2-3 (Groups 5-8), and Days 4-5 (Groups 9-13).
Ethanol (200PRF or 100% pure, non-denatured and no additives) was obtained from Fisher Scientific. The ethanol dosing solution was prepared fresh for each use. One (1) mL of ethanol was added to four (4) mL of saline (0.9% NaCl) in a glass vial and mixed by vortexing to create a uniform solution prior to administration. Animals were administered 20% ethanol at 1 g/kg (IP) 8 hours following the last dose of test article. Thirty (30) minutes following ethanol challenge, animals were euthanized with CO2. About 7 mL of whole blood was rapidly collected via vena cava for generation of serum samples for assays (Acetaldehyde assay by GPL and ALDH2 activity and protein assay by Eurofins). Blood samples were placed into serum separator tubes and maintained at room temperature for at least 30 minutes to allow clot formation prior to processing.
The left lateral lobe of liver was harvested and rinsed in cold saline to render a sample that was snap frozen in liquid nitrogen. Samples were stored at −80° C. until shipment. […]
The obtained serum samples as described herein were measured in singlicate for Acetaldehyde concentration using the Acetaldehyde Colorimetric Assay Kit (BioAssay Systems, #EACT-100), in accordance with manufacturer's instructions. […]

liver ALDH2 [2] = molecular target: T1, liver ALDH2; assay: In vivo ALDH2 enzymatic activity assay with disulfiram comparison, ethanol challenge (Example 3); set-up: species or system rats (Sprague Dawley); conditions: for statistical significance of ALDH2 inhibitions: 2 mg/kg, 6.5 mg/kg and 12 mg/kg IV QD; for dose-activity response of ALDH2 inhibition: 2, 6.5, 12 mg/kg IV QD 3 days; for onset of inhibition of ALDH2 activity: after only 3-day administration; for ALDH2 inhibition versus Disulfiram at 3.57 mg/kg/day PO: after three days at 2 mg/kg/day IV
Method: as §1, with “Eighty-eight (88)” for “Sixty (60)”, “male” for “male and sixty (60) female”
30 mL disulfiram formulation were prepared. 64.2 mg of disulfiram was completely dissolved in 6 mL of DMSO to render a mixture. 0.3 mL of Tween 80 was then slowly added to the mixture. To the resulting mixture, 23.7 mL of PBS (1×, pH 5.0) was slowly added while stirring to render a dosing formulation. The dosing formulation was a fine suspension at concentration of 2.14 mg/mL. The final concentrations for DMSO and […] were 20% v/v and 1% v/v, respectively.
The dosing formulations of Example 1-4A, Example 1-4B3, and Example 1-2 and difulfiram were prepared with PBS (pH 7.0) by thoroughly mixing via vortexing and sonication.
Ethanol challenge study design and dosing groups of Example 1-4A, Example 1-48, and Example 1-2 and difulfiram are as shown in Table 3.
Animals in Group 1 was administered vehicle (PBS) via tail vein injection, once daily for 3 days. Animals in Group 2 was administered vehicle (PBS) disulfiram at 3.57 mg/kg via oral gavage (PO) once daily for 3 days. Animals in Groups 3-11 were respectively administered Example 1-4A at 2, 6.5, and 12 mg/kg, Example 1-4B at 2, 6.5, and 12 mg/kg, or Example 1-2 at 2, 6.5, and 12 mg/kg via tail vein injection, once daily for 3 days.
Dosing volume (1 or 1.67 mL/kg) was calculated based on the individual body weight obtained prior to the first dose of test article.
Ethanol (200PRF or 100% pure, non-denatured and no additives) was obtained from Fisher Scientific. Ethanol dosing solution (20% v/v in saline) was prepared by mixing one (1) part of ethanol and four (4) part of saline (0.9% NaCl) thoroughly to create a uniform solution prior to administration. Animals was administered 20% ethanol at 1 g/kg (IP) 8 hours following the third dose of test article. Thirty (30) minutes following ethanol challenge, animals were euthanized with CO2. About 2 mL of whole blood was rapidly collected via vena cava for generation of plasma samples. Blood samples were placed into K2 EDTA tubes and kept on wet ice prior to processing. Liver lysate generation, protein concentration determination, and ALDH2 activity assay were performed by Confluence Discovery Technologies (CDT). Protein concentrations were determined using the Pierce BCA Protein Assay Kit. ALDH2 Activity Assay using the Abcam assay kit #ab115348.

liver ALDH2 [3] = molecular target: T1, liver ALDH2; assay: as above; set-up: species or system rats (Sprague Dawley); conditions: 2 mg/kg, 6.5 mg/kg and 12 mg/kg IV QD; printed 'after 5 days'
liver ALDH2 [4] = molecular target: T1, liver ALDH2; assay: 10-day rat Pharmacology study, liver ALDH2 activity following ethanol challenge; format: in vivo
Method: as §2
Ethanol (200PRF or 100% pure, non-denatured and no additives) was obtained from Fisher Scientific. The ethanol dosing solution was prepared fresh for each use. One (1) mL of ethanol was added to four (4) mL of saline (0.9% NaCl) in a glass vial and mixed by vortexing to create a uniform solution prior to administration. Animals were administered 20% ethanol at 1 g/kg (IP) 8 hours following the last dose of test article. Thirty (30) minutes following ethanol challenge, animals were euthanized with CO2. […]

[5] = Solubility in CHCl3, DCM and DMSO by SFC/UV; format: physicochemical; conditions: organic solvent or mixture, thermodynamic from solid, room temperature
Method: The solubility in chloroform (CHCl3), dichloromethane (DCM) and dimethyl sulfoxide (DMSO) was determined at room temperature up to 50 mg/mL by measuring the concentrations of the solutions using SFC/UV. […] 200 mg Example 1-11B was weighed individually into three separate vials. 4 mL DMSO, 6 mL CHCl3 and 6 mL DCM were pipetted into the three vials containing Example 1-11B. The solutions were mixed and sonicated for 10 minutes. The DMSO solution was clear, and an aliquot was taken and diluted 100 times using MeOH before being subjected to SFC analysis. The saturated CHCl3 and DCM solutions were centrifuged, and the clear solution was diluted 100 times using MeOH before being subjected to SFC analysis:
Solubility measurement of up to 50 mg/mL in DMSO, CHCl3 and DCM was requested. […] At 50 mg/mL, Example 1-11B was not completely dissolved in CHCl3 or DCM solutions. After mixing and sonication, a clear aliquot of each solution was taken, and the concentrations of Example 1-11B in CHCl3 and DCM were measured by SFC/UV using the DMSO solution as a reference.

statistical significance of ALDH2 inhibitions (liver ALDH2 [2]): statistically significant
dose-activity response of ALDH2 inhibition (liver ALDH2 [2]): A dose-activity response was observed
onset of inhibition of ALDH2 activity (liver ALDH2 [2]): fast activity onset
ALDH2 inhibition versus Disulfiram at 3.57 mg/kg/day PO (liver ALDH2 [2]): greater inhibition
ALDH2 inhibition (FIG. 7) (liver ALDH2 [3]): showed ALDH2 inhibitions
SMILES: CCN(CC)C(=O)[S+](C)[O-] (racemic) [Example 1-2, N,N-diethyl-1-(methylsulfinyl)methanamide]
ALDH2 inhibition after one (1) day administration (liver ALDH2 [1]; 6.5 mg/kg and 12 mg/kg IV, 1 day): statistically significant ALDH2 inhibitions were observed
dose response and treatment-duration response in inhibiting ALDH2 activities (liver ALDH2 [1]; 2, 6.5 or 12 mg/kg tail vein injection QD for 1, 3 or 5 days, ethanol 1 g/kg IP 8 h after last dose): A dose response and a treatment-duration response were observed
ALDH2 inhibition, treatment for 3 and 5 days (liver ALDH2 [1]; all doses (2, 6.5, 12 mg/kg) IV QD for 3 and 5 days): statistically significant ALDH2 inhibitions at all doses
inhibition of liver ALDH2 activity (FIGS. 2 and 3) (liver ALDH2 [1]; dosages of 2 mg/kg, 6.5 mg/kg and 12 mg/kg IV QD): statistically significant effectiveness in inhibiting liver ALDH2 activity

SMILES: C[S+]([O-])C(=O)N1CCC(O)CC1 (racemic) [Example 1-11, (4-hydroxypiperidin-1-yl)(methylsulfinyl)methanone]
ALDH2 inhibition versus pure enantiomer Example 1-11A (FIG. 12) (liver ALDH2 [4]; 10 day administration at 2, 4 and 8 mg/kg, material with 66 wt % of Example 1-11B): greater ALDH2 inhibition than the pure enantiomer Example 1-11A

SMILES: CCN(CC)C(=O)[S@+](C)[O-] (single isomer, unassigned; peak-1) [Example 1-2A, (S )-N, N-diethyl-1 - (methylsulfinyl)methanamide (Peak-1)]
ALDH2 inhibition, enantiomer versus other enantiomer (FIG. 12) (liver ALDH2 [4]; 10-day administration at 0.5, 1 and 2 mg/kg): greater ALDH2 inhibition compared the other enantiomer Example 1-2B

SMILES: CCN(CC)C(=O)[S+]([O-])CC1CC1 (single isomer, unassigned; peak-2) [Example 1-4B, 1-((cyclopropylmethyl)sulfinyl)-N,N-diethylmethanamide (Peak-2)]
statistical significance of ALDH2 inhibitions (liver ALDH2 [2]): statistically significant
dose-activity response of ALDH2 inhibition (liver ALDH2 [2]): A dose-activity response was observed
onset of inhibition of ALDH2 activity (liver ALDH2 [2]): fast activity onset
ALDH2 inhibition versus Disulfiram at 3.57 mg/kg/day PO (liver ALDH2 [2]): greater inhibition
ALDH2 inhibition (FIG. 7) (liver ALDH2 [3]): showed ALDH2 inhibitions

solubility at 10 min ([5]; chloroform (CHCl3), SFC/UV, read-out: solubility in CHCl3): 12.4 mg/mL (≈ 64.8 mM)
solubility at 10 min ([5]; dichloromethane (DCM), SFC/UV, read-out: solubility in DCM): 12.3 mg/mL (≈ 64.3 mM)
solubility at 10 min ([5]; dimethyl sulfoxide (DMSO), tested up to 50 mg/mL, read-out: solubility in DMSO): > 50 mg/mL
SMILES: C[S@+]([O-])C(=O)N1CCC(O)CC1 [Example 1-11B, (S)-(4-hydroxypiperidin-1-yl)(methylsulfinyl)methanone]

ALDH2 inhibition activity in comparison with the negative control group (liver ALDH2 [1]; 20 mg/kg (Day 1), 12 mg/kg (Days 2-5) tail vein injection QD 5 days, ethanol challenge): did not show any inhibition activity
melting point: 71.2 to 74.5 °C
SMILES: CCN(CC)C(=O)[S+]([O-])CC[S+]([O-])C(=O)N(CC)CC (stereo not drawn) [Example 1-15, 1-1′-(ethane-1,2-diyldisulfinyl)bis(N,N-diethylmethanamide)]
